Measured values taken from patent publication US7262309B2, “1- or 3-thia-benzonaphthoazulenes as inhibitors of tumor necrosis factor production and intermediates for the preparation thereof” (GlaxoSmith Kline Istrazivocki Centar Zagreb, D.O.O., priority 2002, dated 2007).

Tested on: TNF-α and IL-1 secretion
Assay: investigated assays, not specified which (TNF-α/IL-1 secretion in human PBMC and in mouse peritoneal macrophages, LPS-induced TNF-α/IL-1 secretion in mice, writhing assay, LPS-induced shock in mice)
Settings: assays not named; active = IC-50 20 μM or lower (PBMC), 10 μM or lower (macrophages), 30% or more inhibition of TNF-α at 10 mg/kg, analgetic activity as acetylsalicylic acid or better, survival 40% or more at 30 mg/kg
Procedure: Human peripheral blood mononuclear cells (PBMC) were prepared from heparinized whole blood after separating PBMC on Ficoll-Paque™Plus (Amersham-Pharmacia). To determine the TNF-α level, 3.5-5×10^4 cells were cultivated in a total volume of 200 μl for 18 to 24 hours on microtitre plates with a flat bottom (96 wells, Falcon) in RPMI 1640 medium, into which there were added 10% FBS (Fetal Bovine Serum, Biowhittaker) previously inactivated at 54° C./30 min, 100 units/ml of penicillin, […] of streptomycin and 20 mM HEPES (GIBCO). The cells were incubated at 37° C. in an atmosphere with 5% CO2 and 90% humidity. […] The IL-1 level was determined in an assay under the same conditions and with the same number of cells and the same concentration of the stimulus by ELISA procedure (R&D Systems). The percentage of inhibition of TNF-α or IL-1 production was calculated by the equation: % inhibition=[1−(TS−NC)/(PC−NC)]*100. […]
In order to obtain peritoneal macrophages, Balb/C mouse strain males, age 8 to 12 weeks, were injected i.p. with 300 μg of zymosan (SIGMA) dissolved in a phosphate buffer (PBS) in a total volume of 0.1 ml/mouse. […] The TNF-α level in the cell supernatant was determined by ELISA procedure (R&D Systems, Biosource). The IL-1 level was determined in an assay identical to the assay for TNF-α by ELISA procedure (R&D Systems). […]

## Dimethyl-[3-(11-methoxy-8-oxa-1-thia-benzo[e]naphtho[3,2-h]azulene-2-ylmethoxy)-propyl]-amine [Example 7]
  activity in at least two investigated assays: show activity in at least two investigated assays
